Where two headings read alike, the source gives them in different places.
Columns and labels:
VSV [1] = type: in vivo, C57/BL6J mice; conditions: mice, VSV infection
H1N1 [2] = assay: Dose-response of infectivity, H1N1 in A549 cells (viral mRNA by qRT-PCR); type: cell-based; conditions: Influenza A virus, H1N1, A549
EMCV [3] = assay: microbe, parasite or virus in culture; type: cell-based, encephalomyocarditis virus (EMCV); conditions: Cardiovirus A, A549
HSV-1 [4] = assay: microbe, parasite or virus in culture; type: cell-based, herpes simplex virus 1 (HSV-1); conditions: Human alphaherpesvirus 1, A549
H1N1 [5] = assay: Dose-response of infectivity, H1N1 in L929 cells; type: cell-based; conditions: Influenza A virus
EMCV [6] = assay: microbe, parasite or virus in culture; type: cell-based, encephalomyocarditis virus (EMCV); conditions: Cardiovirus A, L929
HSV-1 [7] = assay: microbe, parasite or virus in culture; type: cell-based, herpes simplex virus 1 (HSV-1); conditions: Human alphaherpesvirus 1, L929
VSV [8] = type: cell-based, vesicular stomatitis virus (VSV)
A549 cells = assay: Transcriptome analysis (RNA-seq, GO, GSEA) of compound-treated A549 cells
NPC1 = target: T1, NPC1 (Homo sapiens, UniProt O15118); type: binding; conditions: […]; read-out: SPR KD
T1 sequence (O15118 23-1278): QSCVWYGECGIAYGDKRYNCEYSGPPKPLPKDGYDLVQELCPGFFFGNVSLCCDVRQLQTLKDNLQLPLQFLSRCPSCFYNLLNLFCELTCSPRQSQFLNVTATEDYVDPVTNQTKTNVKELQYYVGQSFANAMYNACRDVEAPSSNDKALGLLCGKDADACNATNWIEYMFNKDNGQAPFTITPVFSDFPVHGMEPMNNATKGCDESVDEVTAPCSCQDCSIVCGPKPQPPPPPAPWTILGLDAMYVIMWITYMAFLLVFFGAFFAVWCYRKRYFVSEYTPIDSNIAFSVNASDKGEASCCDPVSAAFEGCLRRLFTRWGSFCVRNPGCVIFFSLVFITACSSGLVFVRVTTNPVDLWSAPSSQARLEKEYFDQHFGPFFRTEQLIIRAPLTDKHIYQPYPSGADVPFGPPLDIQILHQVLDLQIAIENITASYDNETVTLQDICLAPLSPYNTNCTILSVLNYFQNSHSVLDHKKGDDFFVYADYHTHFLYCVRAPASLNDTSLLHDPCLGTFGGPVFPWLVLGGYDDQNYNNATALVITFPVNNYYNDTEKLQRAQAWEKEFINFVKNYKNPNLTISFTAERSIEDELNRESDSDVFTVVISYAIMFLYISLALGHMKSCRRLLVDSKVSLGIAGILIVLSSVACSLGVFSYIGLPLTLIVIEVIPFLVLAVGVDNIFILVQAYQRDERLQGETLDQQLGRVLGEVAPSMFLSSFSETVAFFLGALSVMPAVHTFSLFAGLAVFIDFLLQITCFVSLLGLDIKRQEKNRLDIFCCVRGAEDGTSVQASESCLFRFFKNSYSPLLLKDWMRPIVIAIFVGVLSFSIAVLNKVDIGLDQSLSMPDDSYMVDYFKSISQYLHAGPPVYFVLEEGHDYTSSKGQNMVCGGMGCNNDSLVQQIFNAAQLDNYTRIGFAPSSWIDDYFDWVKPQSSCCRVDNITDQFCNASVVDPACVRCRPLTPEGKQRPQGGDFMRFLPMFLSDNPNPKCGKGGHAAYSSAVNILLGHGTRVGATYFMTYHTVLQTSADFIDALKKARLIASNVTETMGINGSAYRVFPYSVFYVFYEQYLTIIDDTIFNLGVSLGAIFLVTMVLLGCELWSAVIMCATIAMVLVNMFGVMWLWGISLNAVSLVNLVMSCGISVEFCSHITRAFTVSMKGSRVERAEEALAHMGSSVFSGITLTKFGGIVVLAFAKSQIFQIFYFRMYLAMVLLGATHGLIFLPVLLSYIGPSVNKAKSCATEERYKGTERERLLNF

VSV [9] = type: cell-based, vesicular stomatitis virus (VSV); conditions: A549 cells pretreated before infection
H1N1 [10] = assay: H1N1 mRNA in A549 cells pretreated with NPC1 inhibitors; type: cell-based, influenza virus A (H1N1); conditions: A549 cells pretreated before infection
VSV [11] = type: cell-based, vesicular stomatitis virus (VSV); remark: listed apart in the source
H1N1 [12] = assay: Antiviral effect in normal/serum-free medium during H1N1 infection of A549 cells; type: cell-based, influenza virus A (H1N1); conditions: serum-free conditions

SMILES | EC50 (H1N1 [2]) [µM] | EC50 (EMCV [3]) [µM] | EC50 (HSV-1 [4]) [µM] | EC50 (H1N1 [5]) [µM] | EC50 (EMCV [6]) [µM] | EC50 (HSV-1 [7]) [µM] | VSV replication (VSV-G protein, immunoblotting) (VSV [8]) | GSEA NES, Sterol metabolic process (A549 cells; A549 cells, 10 µM, 24 h) | VSV replication (VSV [9]) | H1N1 replication (H1N1 [10]) | also measured
Cc1ccc2c(=O)c3cccc(CC(=O)O)c3oc2c1C [DMXAA] |  |  |  |  |  |  |  |  |  |  | IL-6 level in serum (VSV [1]): markedly decreased; TNF-α level in serum (VSV [1]): markedly decreased
COc1cc2c3cc1Oc1c(OC)c(OC)cc4c1[C@@H](Cc1ccc(O)c(c1)Oc1ccc(cc1)C[C@@H]3N(C)CC2)N(C)CC4 [Bbm, berbamine] | 0.606 | 0.107 | 3.27 | 2.65 | 1.5 | 0.36 | inhibited | 2.29 |  |  | GSEA NES, Response to virus (A549 cells; A549 cells, 10 µM, 24 h): 1.34
CCC(C)n1ncn(-c2ccc(N3CCN(c4ccc(OCC5COC(Cn6cncn6)(c6ccc(Cl)cc6Cl)O5)cc4)CC3)cc2)c1=O (stereo not drawn) [itraconazole] |  |  |  |  |  |  |  |  | effectively blocked | effectively blocked | Kd (NPC1): 8.76 µM
COc1ccc2cc1Oc1ccc(cc1)C[C@H]1c3cc(c(OC)cc3CCN1C)Oc1c(O)c(OC)cc3c1[C@H](C2)N(C)CC3 [Fan, fangchinoline] | 0.794 | 0.821 | 2.55 | 0.537 | 1.36 | 2.32 | inhibited | 2.04 |  |  | GSEA NES, Response to type I interferon (A549 cells; A549 cells, 10 µM, 24 h): 2.27; expression of antiviral immune-related genes (A549 cells; WT A549 cells, compared among Tet, Fan, Cep, Bbm): higher expression
COc1ccc2cc1Oc1ccc(cc1)C[C@H]1c3c(cc4c(c3Oc3cc5c(cc3OC)CCN(C)[C@@H]5C2)OCO4)CCN1C [Cep, cepharanthine] | 0.11 | 2.09 | 3.16 | 3.84 | 0.998 | 0.569 | inhibited | 2.19 |  |  | GSEA NES, Innate immune response (A549 cells; A549 cells, 10 µM, 24 h): 1.25
CN(C)CCCN1c2ccccc2CCc2ccccc21 [imipramine] |  |  |  |  |  |  |  |  | effectively blocked | effectively blocked | 
CC[C@@H]([C@H](C)O)n1ncn(-c2ccc(N3CCN(c4ccc(OC[C@@H]5CO[C@@](Cn6cncn6)(c6ccc(F)cc6F)C5)cc4)CC3)cc2)c1=O [posaconazole] |  |  |  |  |  |  |  |  | effectively blocked | effectively blocked | 
CCN(CC)CCO[C@H]1CC[C@@]2(C)C(=CC[C@@H]3[C@@H]2CC[C@]2(C)C(=O)CC[C@@H]32)C1 [U18666A] |  |  |  |  |  |  |  |  | effectively blocked | effectively blocked | antiviral effect on VSV entry (VSV [11]; MβCD pretreatment (cholesterol depleted)): abolished; antiviral effect on VSV entry (VSV [11]; cholesterol supplementation using MβCD-cholesterol): restored inhibition; antiviral effect on H1N1 entry (H1N1 [12]): diminished
